The text below walks through data of ChEMBL document CHEMBL1201862, “PubChem BioAssay data set” (2004).

Test systems include HT-29; U-251; KM12; SK-MEL-28; HL-60; SK-MEL-5; LOX IMVI; HCT-15; UACC-62; Malme-3M; OVCAR-4; RPMI-8226; TK-10; IGROV-1; HOP-92.
Assay in all cases: inhibition of tumour cell growth, NCI panel, 48 h

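96-well plates; 48 h exposure; 5 concentrations. Endpoints by linear interpolation between flanking doses. Not reached: highest tested concentration assigned. GI50 = concentration required for 50% inhibition of growth.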 Calls of active or inactive are those of the source. Cut-off read from the data, not from the text of the source: active = GI50 up to about 1.1 µM and inactive = higher. Where only a bound is given, the exact number is not on record here.

With `CC(C)CCC[C@@H](C)C1CCC2[C@@H]3CC=C4C[C@@H](OC(=O)CCC(=O)NCC[N+](C)(C)CCCS(=O)(=O)[O-])CC[C@]4(C)C3CC[C@@]21C` (stereo partly drawn), the GI50 is 26.7 µM (inactive) in the assay with HT-29; 18.3 µM (inactive) in the assay with U-251; 20.5 µM (inactive) in the assay with KM12; 17.8 µM (inactive) in the assay on SK-MEL-28; 18.8 µM (inactive) in the assay on HL-60; > 10 µM (inactive) in the assay on SK-MEL-5. The GI50 is 17.2 µM (inactive) in the assay with LOX IMVI; 15.4 µM in the assay with HCT-15; 26.3 µM (inactive) with UACC-62; 22.5 µM (inactive) in the assay with Malme-3M; 17.9 µM (inactive) in the assay with OVCAR-4; 20 µM (inactive) in the assay with RPMI-8226.

Consider `COC12CCC(C(C(=O)c3ccccc3)=C1C(=O)c1ccccc1)C(O)C2` (stereo not drawn), for which the GI50 with TK-10, in the assay with HT-29, in the assay with KM12, in the assay with IGROV-1, in the assay with HOP-92 and in the assay on SK-MEL-28 was > 100 µM (inactive) in each case. In addition, the GI50 is > 100 µM (inactive) with HL-60; > 100 µM (inactive) in the assay on SK-MEL-5; above 100 µM in the assay on HCT-15; > 100 µM (inactive) in the assay on UACC-62; > 100 µM (inactive) in the assay on Malme-3M; > 100 µM (inactive) in the assay with OVCAR-4. Besides, the GI50 in the assay on RPMI-8226 was > 100 µM (inactive).

Regarding `Nc1ncnc(NC2C=C(CO)C(O)C2O)c1[N+](=O)[O-]` (stereo not drawn), the GI50 in the assay with TK-10, in the assay on HT-29, in the assay on U-251, in the assay on KM12, in the assay with IGROV-1 and with SK-MEL-28 was > 100 µM (inactive) each time. Further, the GI50 was > 100 µM (inactive) in the assay on HL-60; > 100 µM (inactive) in the assay with SK-MEL-5; > 100 µM (inactive) in the assay on LOX IMVI; 42.9 µM with HCT-15; > 100 µM (inactive) in the assay with UACC-62; > 100 µM (inactive) with OVCAR-4. Besides, the GI50 in the assay on RPMI-8226 is > 100 µM (inactive).

Take `CCC1=C(C)/C(=C/c2[nH]c(C(Br)Br)c(CC)c2C)N=C1C(Br)Br`: the GI50 was 41.2 µM (inactive) with TK-10; 28.5 µM (inactive) in the assay with HT-29; 22.5 µM (inactive) in the assay with U-251; 19.1 µM (inactive) with KM12; 23.9 µM (inactive) in the assay on IGROV-1; 74.1 µM (inactive) with HOP-92. The GI50 is 45.4 µM (inactive) in the assay with SK-MEL-28; 16.9 µM (inactive) with HL-60; 16.6 µM (inactive) in the assay on SK-MEL-5; 21.2 µM (inactive) in the assay on LOX IMVI; 28.2 µM in the assay on HCT-15; 31 µM (inactive) in the assay on UACC-62. The GI50 is 35 µM (inactive) in the assay on Malme-3M and 9.68 µM (inactive) in the assay with RPMI-8226.

Take `COC1CCC(OC)C(C2(C3CC(OC)CCC3OC)OC(=O)c3ccccc32)C1` (stereo not drawn): the GI50 is > 100 µM (inactive) in the assay with TK-10; 33.8 µM (inactive) with HT-29; 93.8 µM (inactive) in the assay on U-251; 38.9 µM (inactive) in the assay on KM12; 68.4 µM (inactive) in the assay on IGROV-1; > 100 µM (inactive) in the assay with HOP-92. Further, the GI50 in the assay with HL-60 is 13.7 µM (inactive); in the assay with SK-MEL-5, 26.4 µM (inactive); with HCT-15, 37 µM; in the assay on UACC-62, 94.8 µM (inactive); in the assay on Malme-3M it was > 100 µM (inactive); in the assay on OVCAR-4, 70.8 µM (inactive). In addition, the GI50 with RPMI-8226 was 19.8 µM (inactive).

As to `NNC(=O)CNC(=O)c1ccc(Cl)cc1Cl`, the GI50 is > 100 µM (inactive) in the assay with TK-10; 80.4 µM (inactive) in the assay with HT-29; 39.6 µM (inactive) in the assay on U-251; > 100 µM (inactive) with KM12; > 100 µM (inactive) in the assay with IGROV-1; > 100 µM (inactive) in the assay on HOP-92. Besides, the GI50 with SK-MEL-28 is > 100 µM (inactive); in the assay with HL-60 it was > 100 µM (inactive); in the assay on SK-MEL-5, > 100 µM (inactive); with HCT-15, 32.7 µM; in the assay with UACC-62, > 100 µM (inactive); in the assay with Malme-3M, > 100 µM (inactive). The GI50 in the assay on OVCAR-4 and in the assay with RPMI-8226 was > 100 µM (inactive) in each case.

Turning to `CC12CCC(=O)N1c1cc([N+](=O)[O-])ccc1N2` (stereo not drawn), the GI50 with HT-29, in the assay on U-251, in the assay with KM12, in the assay with IGROV-1, in the assay with SK-MEL-28 and with HL-60 was > 100 µM (inactive) in each case. Further, the GI50 in the assay on SK-MEL-5 was > 100 µM (inactive); in the assay with LOX IMVI, > 100 µM (inactive); with HCT-15, above 100 µM; with UACC-62 it was > 100 µM (inactive); with Malme-3M, > 100 µM (inactive); in the assay with OVCAR-4 it was > 100 µM (inactive). For the same compound, the GI50 in the assay with RPMI-8226 is > 100 µM (inactive).

As to `CCOC(=O)C1S/C(=N\c2cccc(Cl)c2C)N=C1C` (stereo not drawn), the GI50 in the assay with TK-10 is 35.6 µM (inactive); in the assay with HT-29 it was 17 µM (inactive); in the assay with U-251, 15.1 µM (inactive); with KM12, 27 µM (inactive); in the assay with IGROV-1, 31.3 µM (inactive); in the assay with HOP-92, 15.1 µM (inactive). The GI50 in the assay with SK-MEL-28 was 40 µM (inactive); in the assay on HL-60, 21.6 µM (inactive); in the assay with LOX IMVI it was 18.1 µM (inactive); with HCT-15, above 10 µM; with Malme-3M, 19.6 µM (inactive); in the assay on OVCAR-4, 31 µM (inactive). The GI50 in the assay on RPMI-8226 is 22 µM (inactive).

For `NC(=O)C(N)=O`, the GI50 in the assay with TK-10, with U-251, with KM12, in the assay with HOP-92, in the assay on SK-MEL-28 and in the assay with HL-60 was > 100 µM (inactive) throughout. The GI50 with SK-MEL-5 was > 100 µM (inactive); with LOX IMVI it was > 100 µM (inactive); in the assay with HCT-15, above 100 µM; in the assay with UACC-62, > 100 µM (inactive); in the assay on Malme-3M, > 100 µM (inactive); in the assay on RPMI-8226, > 100 µM (inactive).

In the case of `Cc1c(C(=O)CSc2nc3ccccc3c(=O)n2-c2ccccc2)c(=O)n(-c2ccccc2)n1C`, the GI50 was 41.9 µM (inactive) with TK-10; > 100 µM (inactive) in the assay on HT-29; 22.4 µM (inactive) in the assay on U-251; 54.7 µM (inactive) in the assay on KM12; > 100 µM (inactive) in the assay with IGROV-1; 24.3 µM (inactive) with HOP-92. Further, the GI50 is 99.3 µM (inactive) with SK-MEL-28; > 100 µM (inactive) in the assay on HL-60; 31.6 µM (inactive) with SK-MEL-5; 42.1 µM (inactive) in the assay with LOX IMVI; above 100 µM in the assay with HCT-15; 60.5 µM (inactive) in the assay with Malme-3M. In addition, the GI50 with OVCAR-4 and with RPMI-8226 was > 100 µM (inactive) each time.

For the compound `CCCCSC1CCSc2c1ccc1ccccc21` (stereo not drawn), the GI50 with TK-10 was > 100 µM (inactive); with HT-29, 71.6 µM (inactive); with U-251, > 100 µM (inactive); with KM12, > 100 µM (inactive); in the assay with IGROV-1, > 100 µM (inactive); in the assay on HOP-92, 46.8 µM (inactive). Moreover, the GI50 is > 100 µM (inactive) in the assay on SK-MEL-28; 93.1 µM (inactive) in the assay with HL-60; > 100 µM (inactive) in the assay with SK-MEL-5; 6.32 µM in the assay with HCT-15; > 100 µM (inactive) in the assay with UACC-62; 10.2 µM (inactive) in the assay on Malme-3M. For the same compound, the GI50 in the assay on OVCAR-4 and in the assay with RPMI-8226 was > 100 µM (inactive) each time.

As for `CC(=O)OCCOCNC(=S)N/N=C(\C)c1cnccn1`, the GI50 with TK-10 is 28.4 µM (inactive); with HT-29, 41 µM (inactive); in the assay with U-251, 29.6 µM (inactive); in the assay on KM12, 43.3 µM (inactive); with IGROV-1 it was 26.9 µM (inactive); with SK-MEL-28 it was 42.5 µM (inactive). Moreover, the GI50 with HL-60 is 15.7 µM (inactive); with SK-MEL-5, 15.4 µM (inactive); in the assay with LOX IMVI it was 57.1 µM (inactive); in the assay on HCT-15, 22.1 µM; in the assay with UACC-62 it was 13.5 µM (inactive); in the assay with Malme-3M it was 30.2 µM (inactive). The values for the GI50 with OVCAR-4 and in the assay on RPMI-8226 were > 100 µM (inactive) and 42.4 µM (inactive), respectively.

Turning to `N#C/C(=C\c1cc(O)cc(O)c1)C(N)=O`, the GI50 was > 100 µM (inactive) with TK-10; > 100 µM (inactive) in the assay with HT-29; > 100 µM (inactive) in the assay on U-251; 80.5 µM (inactive) in the assay with KM12; > 100 µM (inactive) in the assay on IGROV-1; > 100 µM (inactive) with HOP-92. Also, the GI50 with SK-MEL-28 was > 100 µM (inactive); in the assay with HL-60, > 10 µM (inactive); in the assay on HCT-15, above 100 µM; in the assay with UACC-62 it was > 100 µM (inactive); in the assay with Malme-3M it was > 100 µM (inactive); with OVCAR-4, > 100 µM (inactive). The GI50 in the assay on RPMI-8226 was > 100 µM (inactive).

`CC(=O)OC1CC2Oc3ccc(C)cc3C(C)(O2)C1=O` (stereo not drawn): the GI50 with TK-10, in the assay with HT-29, with U-251, with KM12, in the assay on IGROV-1 and with SK-MEL-28 was > 100 µM (inactive) each time. Also, the GI50 in the assay with HL-60 was > 100 µM (inactive); with SK-MEL-5 it was > 100 µM (inactive); with LOX IMVI, > 100 µM (inactive); with HCT-15, above 100 µM; with UACC-62, > 100 µM (inactive); with Malme-3M it was > 100 µM (inactive). The GI50 in the assay on RPMI-8226 was > 100 µM (inactive).

On to `C[N+](C)(C)CCC(=O)CC[N+](C)(C)C`, for which the GI50 was 17 µM (inactive) with TK-10; 13.5 µM (inactive) with HT-29; > 100 µM (inactive) with U-251; 20 µM (inactive) in the assay with KM12; 87.3 µM (inactive) in the assay with IGROV-1; 21.6 µM (inactive) with SK-MEL-28. Besides, the GI50 with HL-60 was 4.09 µM (inactive); with SK-MEL-5 it was 35.3 µM (inactive); in the assay on HCT-15, 19.2 µM; with UACC-62, 21.5 µM (inactive); in the assay with Malme-3M, 19.7 µM (inactive); in the assay with OVCAR-4 it was 17.7 µM (inactive). Also, in the assay on RPMI-8226, the GI50 is 4.68 µM (inactive).
